Drawing on PMC8041284, “Tunable Methacrylamides for Covalent Ligand Directed Release Chemistry” (Journal of the American Chemical Society, 2021), this text covers inhibition for 70 compounds.

Where a SMILES comes first, the peptide text is derived from it. Bridges are numbered along the chain shown (N, C = ends).

Chain of BTK (Q06187 402-655 limits assumed): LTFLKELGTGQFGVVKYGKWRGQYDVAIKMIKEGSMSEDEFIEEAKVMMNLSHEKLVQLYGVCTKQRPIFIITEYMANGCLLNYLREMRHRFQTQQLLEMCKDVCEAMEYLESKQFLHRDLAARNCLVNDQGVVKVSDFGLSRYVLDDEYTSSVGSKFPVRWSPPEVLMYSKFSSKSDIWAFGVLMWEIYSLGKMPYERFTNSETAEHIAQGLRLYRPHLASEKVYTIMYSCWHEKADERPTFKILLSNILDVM

The experiment has as its target BTK (Homo sapiens, UniProt Q06187). In words: biochemical. The note with it: read-out: BTK inhibition (%), 0.75 uM BTK, […] probe 3l, 15 min preincubation.
A word on the inhibition: it is the change of the read-out against control, counted positive when it falls. For the compound `C=CC(=O)Nc1cccc(Nc2nc(Nc3ccc(NC4CN(CCF)C4)cc3OC)ncc2C(F)(F)F)c1` [PCM-0215208], the inhibition at 10 µM worked out at 91%.
As for `COc1nc(OCc2cccc(-c3ccccc3)c2C)ccc1CNCCNC(C)=O` [PCM-0215525], the figure is -51.7%.
With `CC(C)[C@H](NC(=O)c1ccc2ccccc2n1)C(=O)N[C@@H](CC(=O)O)C(=O)COc1c(F)cccc1F` [PCM-0215598], the inhibition at 10 µM worked out at 7.7%.
As for `CCOC(=O)c1c2c3c(cccc3[nH]c1=O)C(=O)c1ccccc1-2` [PCM-0215657], the figure is -20.1%.
Under `C#C[C@]1(O)CC[C@H]2[C@@H]3CCc4cc(OC)ccc4[C@H]3CC[C@@]21C` [PCM-0214662] stands 8.6%; under `COC(=O)c1ccc2c(c1)[nH]c1ncnc(NCCCN3CCCCC3)c12` [PCM-0215451], -0.8%; under `Cc1onc(-c2ccccc2)c1-c1ccc(S(N)(=O)=O)cc1` [PCM-0095602], -38.6%.
Under `COc1cc(C)c(/C=C/C(C)=C/C=C/C(C)=C/C(=O)O)c(C)c1C` [PCM-0086430] stands 10.9%.
Turning to `O=C(Nc1ccc(O)cc1)c1ccccc1O` [PCM-0214902], the inhibition at 10 µM is -10.9%.
Regarding `Cc1nc(N(C)C(=O)Cc2ccc(-c3ccccn3)cc2)sc1S(N)(=O)=O` [PCM-0215334], the inhibition at 10 µM amounted to 0.8%.
Under `OCC1(O)OC[C@@H](O)[C@H](O)[C@@H]1O` (stereo partly shown) [PCM-0216581] stands 6.9%; under `CC[N+](CC)(CC)CCOc1cccc(OCC[N+](CC)(CC)CC)c1OCC[N+](CC)(CC)CC` [PCM-0065294], 9.3%; under `COc1ccc(Oc2cc(C)c(-c3csc(NC(=O)c4ccncc4)n3)c(C)c2)cc1` [PCM-0215413], 20.8%.
For the compound `CC(C)(C)c1cc(NC(=O)Nc2ccc(-c3cn4c(n3)sc3cc(OCCN5CCOCC5)ccc34)cc2)no1` [PCM-0095196], the inhibition at 10 µM came out at 1.4%.
As for `CC(C)=CCC[C@](C)(O[C@@H]1O[C@H](CO[C@@H]2OC[C@H](O)[C@H](O)[C@H]2O)[C@@H](O)[C@H](O)[C@H]1O)[C@H]1CC[C@]2(C)[C@@H]1[C@H](O)C[C@@H]1[C@@]3(C)CC[C@H](O[C@@H]4O[C@H](CO)[C@@H](O)[C@H](O)[C@H]4O[C@@H]4O[C@H](CO)[C@@H](O)[C@H](O)[C@H]4O)C(C)(C)[C@@H]3CC[C@]12C` [PCM-0216375], the figure is 7.7%.
As for `O=c1c(-c2ccc(O[C@@H]3O[C@H](CO)[C@@H](O)[C@H](O)[C@H]3O)cc2)coc2cc(O)cc(O)c12` [PCM-0215108], the figure is -9.7%; as for `Cc1ccc(S(=O)(=O)c2ccc([N+](=O)[O-])o2)cc1` [PCM-0095771], -10.8%; as for `O=c1ccc2ccc(O)cc2[nH]1` [PCM-0216227], 7.8%.
Under `NCCCNCCCCNCCCN` [PCM-0065483] stands -26.9%.
On to `CC(C)OC(=O)CCC/C=C\C[C@@H]1[C@@H](/C=C/[C@@H](O)COc2cccc(C(F)(F)F)c2)[C@H](O)C[C@@H]1O` [PCM-0215893], for which the inhibition at 10 µM is -28%.
For `Cc1cc(C)nc(NS(=O)(=O)c2ccc(NC(=S)NC(=O)COc3ccc(Br)cc3Cl)cc2)n1` [PCM-0095801], the inhibition at 10 µM turned out to be 59.5%.
Turning to `N[C@@H]1CCCN(c2c(/C=C3\SC(=O)NC3=O)cccc2-c2ccccc2)C1` [PCM-0095732], the inhibition at 10 µM stood at 4.1%.
As for `COc1cc(C(C)=O)ccc1O` [PCM-0094831], the figure is 9%.
Under `C=CCn1c(=O)c2cnc(Nc3ccc(N4CCN(C)CC4)cc3)nc2n1-c1cccc(C(C)(C)O)n1` [PCM-0095195] stands 37.2%; under `CCCc1cc(C(N)=S)ccn1` [PCM-0086237], -11.7%.
As to `C[C@@H]1Cc2c([nH]c3ccccc23)[C@@H](c2c(F)cc(/C=C/C(=O)O)cc2F)N1CC(C)(C)F` [PCM-0215727], the inhibition at 10 µM came out at 30.9%.
Under `NC(N)=Nc1nc(CSCC/C(N)=N/S(N)(=O)=O)cs1` [PCM-0214735] stands -26.2%.
With `CN1CCN(Cc2ccc(Nc3ncc(Cl)c(Nc4ccccc4S(=O)(=O)N(C)C)n3)cc2)CC1` [PCM-0215510], the inhibition at 10 µM worked out at 67.2%.
Under `CC1=C(/C=C/C(C)=C/C=C/C(C)=C/C=C/C=C(C)/C=C/C=C(C)/C=C/C2=C(C)C(=O)[C@@H](O)CC2(C)C)C(C)(C)C[C@H](O)C1=O` [PCM-0214960] stands 16.6%; under `C[C@@H]1CC[C@]2(C(=O)O[C@@H]3O[C@H](CO)[C@@H](O)[C@H](O)[C@H]3O)CC[C@]3(C)C(=CC[C@@H]4[C@@]5(C)CC[C@H](O[C@@H]6OC[C@H](O)[C@H](O)[C@H]6O)C(C)(C)[C@@H]5CC[C@]43C)[C@@H]2[C@]1(C)O` [PCM-0216435], 7.7%; under `C[C@@H](NCCCc1cccc(C(F)(F)F)c1)c1cccc2ccccc12` [PCM-0095032], 24.1%.
Under `Nc1[nH]c(=O)ncc1Br` [PCM-0216584] stands 8.5%; under `CCCCCCCCCCCCCCCCCCCCCC(=O)O` [PCM-0216151], 23.2%; under `CCCCCCCCCCCCCCCC(=O)OCC` [PCM-0216630], -12.4%.
As to `CN1CCN(c2ccc(OC(F)(F)F)c(Nc3ncc4c(n3)-c3c(c(C(N)=O)nn3CCO)CC4)c2)CC1` [PCM-0215357], the inhibition at 10 µM is -26.9%.
Under `Cc1ccc(C=C2C(=O)C3(C)CCC2C3(C)C)cc1` (stereo not shown) [PCM-0214882] stands 5.4%; under `CC(C)(C)c1[nH]cnc1/C=c1\[nH]c(=O)/c(=C/c2ccccc2)[nH]c1=O` [PCM-0095681], -2.1%; under `C[C@]1(c2nc3c(C(N)=O)cccc3[nH]2)CCCN1` [PCM-0094885], -6.2%.
Under `COc1ccc(C2(C#N)CCC(C(=O)O)CC2)cc1OC1CCCC1` (stereo not shown) [PCM-0095129] stands -29.6%.
As for `OCCOc1ccc(/C(=C(/CCCl)c2ccccc2)c2ccccc2)cc1` [PCM-0214796], the figure is 73.9%; as for `CC(C)(C)Cn1c(N)nc2ccc(-c3[nH]c(C(C)(C)C)nc3-c3ccc(F)cc3)nc21` [PCM-0095175], -5.1%; as for `C1=Cc2ccccc2Nc2ccccc21` [PCM-0215149], 4.7%.
Take `O=C(O)c1cccnc1Nc1cccc(C(F)(F)F)c1` [PCM-0064877]: the inhibition at 10 µM came out at 24.1%.
Under `Cc1c(Cc2ccc3ccccc3n2)c2cc(F)ccc2n1CC(=O)O` [PCM-0214780] stands 8.6%.
As for `CCCCCCCC/C=C\CCCCCCCC(=O)OCC` [PCM-0216145], the figure is 6.9%; as for `Cc1nnc(NS(=O)(=O)c2ccc(N)cc2)s1` [PCM-0086420], -10.9%; as for `CCCCCCCCCC=O` [PCM-0216148], -10%.
Consider `COc1cc2nccc(Oc3ccc(NC(=O)Nc4ccc(F)cc4F)c(F)c3)c2cc1OC` [PCM-0094996], for which the inhibition at 10 µM came to 4.8%.
As for `CCN(CC)CCOCCOC(=O)C1(c2ccccc2)CCCC1` [PCM-0065027], the inhibition at 10 µM is 4.7%.
Regarding `NCCC(O)(P(=O)(O)O)P(=O)(O)O` [PCM-0094901], the inhibition at 10 µM is -6.8%.
In the case of `NC(=O)c1cnc2[nH]ccc2c1NC1[C@@H]2CC3C[C@H]1CC(O)(C3)C2` (stereo partly shown) [PCM-0215550], the inhibition at 10 µM stood at 94.5%.
With `C=CC(=O)N1C[C@H](Nc2ncnc3[nH]ccc23)CC[C@@H]1C` [PCM-0215972], the inhibition at 10 µM is 95%.
Under `CCCCCCCCCCCCCCCCO` [PCM-0214755] stands -3.9%; under `CCOc1cc([C@@H](CS(C)(=O)=O)N2C(=O)c3cccc(NC(C)=O)c3C2=O)ccc1OC` [PCM-0095620], 9%; under `COc1ncc(-c2cc(-c3ncc(CN4C[C@@H](C)O[C@@H](C)C4)o3)c3cn[nH]c3c2)cc1NS(C)(=O)=O` [PCM-0213408], 6.2%.
Take `Nc1ccn([C@@H]2CS[C@H](CO)O2)c(=O)n1` [PCM-0085971]: the inhibition at 10 µM was 14%.
For `CCCCOC(=O)c1ccccc1Nc1cccc(C(F)(F)F)c1` [PCM-0216094], the inhibition at 10 µM stood at 21.4%.
Under `OCCOCCN1CCN(Cc2cccc(Oc3ccccc3)c2)CC1` [PCM-0215707] stands 13.1%; under `CC1(C)CC[C@]2(C(=O)O)CC[C@]3(C)C(=CC[C@@H]4[C@@]5(C)CC[C@H](O)[C@@](C)(CO)[C@@H]5CC[C@]43C)[C@@H]2C1` [PCM-0215046], 15.6%; under `C=C1[C@H](O)C[C@H]2[C@@H](/C=C(\C)C(=O)[C@@]3(O)C[C@H](C)[C@H](O)[C@@H]3[C@H]1O)C2(C)C` [PCM-0216654], -8.6%.
With `COc1ccc(/C=C/C(=O)c2c(O)cc(OC)cc2OC)cc1` [PCM-0216582], the inhibition at 10 µM was determined as 11.6%.
As for `NC(=O)c1cn(Cc2c(F)cccc2F)nn1` [PCM-0065619], the figure is -17.9%; as for `Nc1c2c(nc3ccccc13)CCCC2` [PCM-0064528], -7.8%; as for `CNC(=O)c1cc(Oc2ccc(NC(=O)Nc3ccc(Cl)c(C(F)(F)F)c3)cc2)ccn1` [PCM-0094958], 73.8%.
As to `NCCCC[C@H](NC(=O)[C@@H]1CCCN1C(=O)[C@@H]1CSSC[C@H](NC(=O)CNC(=O)CNC(=O)CN)C(=O)N[C@@H](Cc2ccc(O)cc2)C(=O)N[C@@H](Cc2ccccc2)C(=O)N[C@@H](CCC(N)=O)C(=O)N[C@@H](CC(N)=O)C(=O)N1)C(=O)NCC(N)=O` [PCM-0216274] (H-GGGCYFQNCPKG-NH2; disulfide 4-9), the inhibition at 10 µM was -3.4%.
Under `O=c1[nH]c(=O)n([C@H]2C[C@H](O)[C@@H](CO)O2)cc1Br` [PCM-0215515] stands 3.9%.
On to `CC(=O)CCc1ccc(OC(C)=O)cc1` [PCM-0216104], for which the inhibition at 10 µM was -10.8%.
In the case of `N[C@@H]1CCCCN(c2c(F)cc3c(=O)c(C(=O)O)cn(C4CC4)c3c2Cl)C1` [PCM-0095545], the inhibition at 10 µM was -15.3%.
As for `O=C(Nc1nccs1)C(c1cc(F)ccc1O)N1Cc2ccccc2C1=O` (stereo not shown) [PCM-0215692], the figure is 13.8%; as for `Cn1cc(-c2ccc(S(=O)(=O)n3ccc(/C=C/C(=O)Nc4ccccc4N)c3)cc2)cn1` [PCM-0215419], 32.4%.
